# Activity calls are given as the source filed them.
# What was measured:
# [1] = target: T1, High affinity choline transporter 1 (Homo sapiens, UniProt Q9GZV3); assay: human choline transporter blockers, potency – cell-based, 5-point CRC, membrane potential dye, dose response (AID 504840); format: functional
# T1 sequence (Q9GZV3 whole entry): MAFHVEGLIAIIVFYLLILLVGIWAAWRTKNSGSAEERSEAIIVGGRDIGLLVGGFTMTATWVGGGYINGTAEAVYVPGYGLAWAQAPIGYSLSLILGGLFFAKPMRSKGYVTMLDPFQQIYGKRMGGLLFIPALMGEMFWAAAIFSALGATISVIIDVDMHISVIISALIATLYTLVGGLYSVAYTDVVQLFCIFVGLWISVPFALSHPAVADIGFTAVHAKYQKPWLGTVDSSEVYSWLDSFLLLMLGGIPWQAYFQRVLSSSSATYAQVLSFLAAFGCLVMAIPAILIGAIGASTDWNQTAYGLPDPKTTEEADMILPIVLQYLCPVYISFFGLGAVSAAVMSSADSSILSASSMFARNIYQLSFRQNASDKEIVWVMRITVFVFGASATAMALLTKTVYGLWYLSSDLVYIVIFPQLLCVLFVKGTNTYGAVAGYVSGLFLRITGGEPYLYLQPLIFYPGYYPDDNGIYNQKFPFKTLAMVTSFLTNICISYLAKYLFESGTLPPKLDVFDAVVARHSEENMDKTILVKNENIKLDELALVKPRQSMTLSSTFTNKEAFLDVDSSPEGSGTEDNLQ
# [2] = target: T1, High affinity choline transporter 1; assay: human choline transporter blockers, potency – cell-based, 10-point CRC, membrane potential dye, dose response (AID 588401); format: functional;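 also: membrane potential dye fluorescence of choline-evoked depolarization via CHT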
# [3] = target: 26S proteasome non-ATPase regulatory subunit 14 (Homo sapiens, UniProt O00487); assay: inhibition of proteasome subunit RPN11 – biochemical, fluorescence polarization, uHTS hits, confirmation (AID 602368); format: functional
# Chain of 26S proteasome non-ATPase regulatory subunit 14 (O00487 whole entry): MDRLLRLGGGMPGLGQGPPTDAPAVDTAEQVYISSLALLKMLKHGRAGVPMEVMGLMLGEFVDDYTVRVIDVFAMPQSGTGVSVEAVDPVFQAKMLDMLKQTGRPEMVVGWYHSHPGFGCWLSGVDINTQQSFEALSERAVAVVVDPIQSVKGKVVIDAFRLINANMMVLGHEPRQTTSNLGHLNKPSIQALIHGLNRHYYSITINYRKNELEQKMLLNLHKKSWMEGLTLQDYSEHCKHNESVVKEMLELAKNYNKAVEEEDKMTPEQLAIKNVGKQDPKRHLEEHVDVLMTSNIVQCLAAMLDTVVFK
# Prothrombin = Prothrombin (Bos taurus, UniProt P00735); assay: thrombin protease inhibitors – biochemical, fluorescence polarization, uHTS hits, dose response (AID 602369); format: functional
# [4] = target: 72 kDa type IV collagenase (Homo sapiens, UniProt P08253); assay: Dose Response validation of uHTS RPN11 inhibitor hits using a MMP-2 Fluorescence assay.; format: functional
# Chain of 72 kDa type IV collagenase (P08253 whole entry): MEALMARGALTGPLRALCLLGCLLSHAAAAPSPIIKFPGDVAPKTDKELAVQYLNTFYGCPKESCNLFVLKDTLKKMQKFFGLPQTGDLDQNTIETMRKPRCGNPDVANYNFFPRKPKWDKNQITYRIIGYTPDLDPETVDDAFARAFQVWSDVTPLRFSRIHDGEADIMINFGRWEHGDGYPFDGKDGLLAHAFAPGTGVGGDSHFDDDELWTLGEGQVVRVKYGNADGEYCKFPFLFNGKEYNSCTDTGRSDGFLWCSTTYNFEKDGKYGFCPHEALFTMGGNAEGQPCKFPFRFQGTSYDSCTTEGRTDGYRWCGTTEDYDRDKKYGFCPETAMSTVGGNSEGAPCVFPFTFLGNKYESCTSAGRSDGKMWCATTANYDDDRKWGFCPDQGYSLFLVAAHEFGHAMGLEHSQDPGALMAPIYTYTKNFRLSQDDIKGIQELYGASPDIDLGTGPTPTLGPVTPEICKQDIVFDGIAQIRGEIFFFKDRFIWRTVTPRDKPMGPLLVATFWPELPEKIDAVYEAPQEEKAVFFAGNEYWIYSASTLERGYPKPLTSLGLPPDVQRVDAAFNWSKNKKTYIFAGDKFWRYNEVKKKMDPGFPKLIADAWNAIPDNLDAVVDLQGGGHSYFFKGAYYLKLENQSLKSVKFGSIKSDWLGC
# INS1 = assay: INS-1E survival protection against cytokine death – cell-based, luminescence, retest, dose response (AID 449756); format: functional; conditions: Rattus norvegicus;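 also: cell death triggered by IL-1 beta plus TNF-alpha plus IFN-gamma mixture; protective hits raise ATP signal compared with cytokine alone wells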
# [5] = target: Dual specificity protein phosphatase 3 (Homo sapiens, UniProt P51452); assay: VHR phosphatase inhibition, dose response, selectivity assay for STEP inhibitor project, biochemical (AID 602374); format: functional; conditions: read-out: IC50_Mean
# Chain of Dual specificity protein phosphatase 3 (P51452 whole entry): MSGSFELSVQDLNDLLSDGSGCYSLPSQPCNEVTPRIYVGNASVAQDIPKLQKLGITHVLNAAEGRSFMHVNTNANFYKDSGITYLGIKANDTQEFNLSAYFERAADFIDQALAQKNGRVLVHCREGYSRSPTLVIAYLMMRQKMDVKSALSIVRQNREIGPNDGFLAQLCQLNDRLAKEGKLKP
# [6] = target: Tyrosine-protein phosphatase non-receptor type 5 (Homo sapiens, UniProt P54829); assay: PTPN5 enzyme inhibition – biochemical, fluorescence intensity, uHTS hits, confirmation (AID 602372); format: functional; conditions: read-out: IC50_Mean
# [7] = target: Tyrosine-protein phosphatase non-receptor type 11 (Homo sapiens, UniProt Q06124); assay: PTPN11 enzyme inhibitors – biochemical, selectivity assay for STEP inhibitor project, dose response (AID 602367); format: functional; conditions: read-out: IC50_Mean
# [8] = target: T2, ATP-dependent translocase ABCB1 (Homo sapiens, UniProt P08183); assay: inhibition of BCRP-mediated JC-1 efflux – Ig-MXP3 cells, flow cytometry, set 2, dose response (AID 504566); format: functional; conditions: read-out: EC50_MICROM_;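 also: flow cytometry median green fluorescence of retained JC-1 dye; potency of efflux pump inhibition measured as rising substrate retention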
# T2 sequence (P08183 whole entry): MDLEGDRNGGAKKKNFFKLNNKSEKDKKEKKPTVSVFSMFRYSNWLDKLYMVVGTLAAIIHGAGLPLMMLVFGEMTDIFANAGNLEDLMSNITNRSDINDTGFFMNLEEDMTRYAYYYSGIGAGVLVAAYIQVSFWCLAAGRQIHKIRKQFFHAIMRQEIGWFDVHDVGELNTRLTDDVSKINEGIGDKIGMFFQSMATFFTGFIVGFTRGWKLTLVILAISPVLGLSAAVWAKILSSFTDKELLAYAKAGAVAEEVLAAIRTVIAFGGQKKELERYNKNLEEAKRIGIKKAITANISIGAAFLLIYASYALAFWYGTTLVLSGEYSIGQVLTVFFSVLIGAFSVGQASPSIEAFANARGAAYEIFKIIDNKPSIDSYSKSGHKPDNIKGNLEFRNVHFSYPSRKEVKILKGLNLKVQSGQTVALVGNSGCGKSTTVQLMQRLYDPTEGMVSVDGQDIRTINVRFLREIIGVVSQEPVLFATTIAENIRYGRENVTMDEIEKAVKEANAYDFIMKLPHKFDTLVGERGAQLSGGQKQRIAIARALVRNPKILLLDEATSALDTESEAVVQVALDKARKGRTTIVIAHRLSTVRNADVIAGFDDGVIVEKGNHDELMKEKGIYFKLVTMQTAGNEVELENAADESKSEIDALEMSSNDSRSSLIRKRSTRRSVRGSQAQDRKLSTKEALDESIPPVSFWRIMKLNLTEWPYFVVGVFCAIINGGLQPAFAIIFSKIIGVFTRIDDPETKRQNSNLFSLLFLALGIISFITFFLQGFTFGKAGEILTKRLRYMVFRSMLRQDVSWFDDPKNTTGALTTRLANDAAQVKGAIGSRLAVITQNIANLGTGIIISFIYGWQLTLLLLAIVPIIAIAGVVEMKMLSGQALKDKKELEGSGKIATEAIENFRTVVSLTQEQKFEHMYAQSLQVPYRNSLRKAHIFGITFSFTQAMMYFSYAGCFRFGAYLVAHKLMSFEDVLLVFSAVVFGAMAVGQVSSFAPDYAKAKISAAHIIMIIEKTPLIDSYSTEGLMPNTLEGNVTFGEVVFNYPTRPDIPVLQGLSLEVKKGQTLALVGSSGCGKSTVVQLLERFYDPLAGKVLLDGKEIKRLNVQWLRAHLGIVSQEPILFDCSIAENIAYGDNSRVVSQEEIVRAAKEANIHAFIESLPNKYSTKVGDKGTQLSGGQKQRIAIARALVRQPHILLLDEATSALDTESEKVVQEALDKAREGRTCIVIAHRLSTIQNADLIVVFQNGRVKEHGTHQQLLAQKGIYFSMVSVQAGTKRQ
# [9] = target: T2, ATP-dependent translocase ABCB1; assay: P-gp JC-1 efflux blockade concentration-response – Jurkat-DNR cells, flow cytometry, set 2, dose response (AID 504569); format: functional; conditions: read-out: EC50_MICROM_;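 also: potency of pump inhibitors that raise cellular JC-1 green fluorescence up to the nicardipine level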
# [10] = target: T3, Methionyl-tRNA synthetase, putative (Trypanosoma brucei brucei, UniProt Q38C91); format: functional, Trypanosoma brucei brucei strain 927/4 GUTat10.1
# T3 sequence (Q38C91 whole entry): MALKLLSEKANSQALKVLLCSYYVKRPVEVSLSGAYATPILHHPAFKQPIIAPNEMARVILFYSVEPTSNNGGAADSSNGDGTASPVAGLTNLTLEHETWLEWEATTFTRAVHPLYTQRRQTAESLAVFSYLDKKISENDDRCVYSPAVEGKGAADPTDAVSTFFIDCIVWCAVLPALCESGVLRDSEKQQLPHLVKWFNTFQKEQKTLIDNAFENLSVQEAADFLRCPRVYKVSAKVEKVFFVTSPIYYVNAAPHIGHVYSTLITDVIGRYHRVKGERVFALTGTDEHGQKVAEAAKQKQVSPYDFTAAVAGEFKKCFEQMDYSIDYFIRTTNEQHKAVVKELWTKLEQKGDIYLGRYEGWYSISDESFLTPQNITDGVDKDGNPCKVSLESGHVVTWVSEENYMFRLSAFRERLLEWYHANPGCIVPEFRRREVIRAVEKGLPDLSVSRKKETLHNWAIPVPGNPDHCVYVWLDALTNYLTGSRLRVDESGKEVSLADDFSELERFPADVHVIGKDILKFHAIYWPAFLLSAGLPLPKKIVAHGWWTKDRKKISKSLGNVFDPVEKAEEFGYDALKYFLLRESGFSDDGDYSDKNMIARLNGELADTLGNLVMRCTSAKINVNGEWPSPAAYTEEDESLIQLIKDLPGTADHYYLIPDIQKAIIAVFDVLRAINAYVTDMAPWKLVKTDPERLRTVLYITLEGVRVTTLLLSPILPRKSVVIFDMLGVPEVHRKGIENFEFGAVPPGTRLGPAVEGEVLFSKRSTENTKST
# [11] = target: T3, Methionyl-tRNA synthetase, putative; format: functional, Trypanosoma brucei brucei strain 927/4 GUTat10.1; remark: listed apart in the source
# [12] = Counterscreen for inhibitors of Trypanosoma brucei methionyl tRNA synthetase (MetRS): Luminescence-based cell-based high throughput dose response assay to identify compounds that are cytotoxic to Jurkat human T lymphocyte cells.; format: functional
# [13] = target: T4, Sentrin-specific protease 8 (Homo sapiens, UniProt Q96LD8); format: functional
# T4 sequence (Q96LD8 whole entry): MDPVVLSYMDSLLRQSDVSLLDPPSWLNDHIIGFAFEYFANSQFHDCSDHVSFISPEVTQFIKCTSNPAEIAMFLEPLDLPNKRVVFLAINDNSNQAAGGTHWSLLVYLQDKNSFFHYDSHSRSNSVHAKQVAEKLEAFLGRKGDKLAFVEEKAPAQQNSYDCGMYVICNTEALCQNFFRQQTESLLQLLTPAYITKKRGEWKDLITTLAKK
# [14] = target: T4, Sentrin-specific protease 8; format: functional; remark: listed apart in the source
# [15] = target: Potassium voltage-gated channel subfamily KQT member 2 (Rattus norvegicus, UniProt O88943); assay: blockers of KCNQ2 channel current – cell-based, automated electrophysiology, set II, rat KCNQ2, dose response (AID 588637); format: functional
# Chain of Potassium voltage-gated channel subfamily KQT member 2 (O88943 whole entry): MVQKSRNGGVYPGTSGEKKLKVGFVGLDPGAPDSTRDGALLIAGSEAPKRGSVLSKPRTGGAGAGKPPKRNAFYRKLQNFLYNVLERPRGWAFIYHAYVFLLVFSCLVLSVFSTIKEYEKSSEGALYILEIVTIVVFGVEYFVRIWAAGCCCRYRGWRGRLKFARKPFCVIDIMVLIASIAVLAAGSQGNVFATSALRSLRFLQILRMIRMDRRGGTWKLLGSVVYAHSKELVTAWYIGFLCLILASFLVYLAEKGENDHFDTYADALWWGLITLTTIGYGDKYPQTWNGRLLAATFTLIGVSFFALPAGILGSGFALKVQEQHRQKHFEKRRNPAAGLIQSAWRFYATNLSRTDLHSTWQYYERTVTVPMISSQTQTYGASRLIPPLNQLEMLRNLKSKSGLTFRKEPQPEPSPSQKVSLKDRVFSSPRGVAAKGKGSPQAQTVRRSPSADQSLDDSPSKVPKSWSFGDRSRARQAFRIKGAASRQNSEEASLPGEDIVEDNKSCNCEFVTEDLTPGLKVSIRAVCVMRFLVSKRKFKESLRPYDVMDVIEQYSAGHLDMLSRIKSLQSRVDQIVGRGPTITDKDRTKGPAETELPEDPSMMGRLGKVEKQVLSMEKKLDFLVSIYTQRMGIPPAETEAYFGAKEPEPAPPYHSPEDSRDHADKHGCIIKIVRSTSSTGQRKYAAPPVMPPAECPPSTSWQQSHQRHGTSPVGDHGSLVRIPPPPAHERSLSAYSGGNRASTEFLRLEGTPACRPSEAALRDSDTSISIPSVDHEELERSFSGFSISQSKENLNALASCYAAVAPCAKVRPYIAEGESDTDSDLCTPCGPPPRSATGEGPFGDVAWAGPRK
# Steroidogenic factor 1 = Steroidogenic factor 1 (Homo sapiens, UniProt Q13285); assay: Counterscreen for inverse agonists of the liver receptor homolog-1 (LRH-1; NR5A2): Luminescence-based cell-based high throughput dose response assay to identify inverse agonists of the Steroidogenic Factor 1 Nuclear Receptor (SF1; NR5A1).; format: functional
# Chain of Steroidogenic factor 1 (Q13285 whole entry): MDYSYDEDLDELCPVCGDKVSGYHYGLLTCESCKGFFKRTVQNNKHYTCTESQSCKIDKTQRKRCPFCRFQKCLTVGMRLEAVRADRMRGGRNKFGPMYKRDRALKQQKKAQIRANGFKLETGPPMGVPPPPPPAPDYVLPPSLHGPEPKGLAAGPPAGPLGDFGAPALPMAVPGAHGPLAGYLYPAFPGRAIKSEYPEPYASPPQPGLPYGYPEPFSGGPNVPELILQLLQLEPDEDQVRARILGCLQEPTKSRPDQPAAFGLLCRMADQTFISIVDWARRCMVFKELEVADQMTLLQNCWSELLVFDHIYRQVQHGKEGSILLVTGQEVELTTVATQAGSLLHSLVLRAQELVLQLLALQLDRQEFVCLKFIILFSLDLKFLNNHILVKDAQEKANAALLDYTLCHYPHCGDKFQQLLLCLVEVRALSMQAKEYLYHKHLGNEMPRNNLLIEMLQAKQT
# [16] = nonselective StAR promoter luciferase inhibitors – cell-based, luminescence, luciferase reporter, counter-screen for LRH-1 inverse agonist project, dose response (AID 651969); format: functional
# [17] = target: Nuclear receptor subfamily 5 group A member 2 (Homo sapiens, UniProt O00482); format: functional, cell-based;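 also: HEK293T cells transfected with LRH-1 and a StAR promoter luciferase reporter; potency for inhibitors that lower LRH-1 driven reporter light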
# [18] = target: T5, Heat shock factor protein 1 (Mus musculus, UniProt P38532); assay: enhancement of HSF1-driven luciferase signal – cell-based, NIH3T3, luminescence, dose retest, confirmation (AID 435004); format: functional;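 also: stress induced by proteasome inhibitor MG132 added 30 min after compound; luciferase reporter driven by HSF1 response element in NIH3T3 cells; actives raise luminescence as potentiators of the MG132 stress response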
# T5 sequence (P38532 whole entry): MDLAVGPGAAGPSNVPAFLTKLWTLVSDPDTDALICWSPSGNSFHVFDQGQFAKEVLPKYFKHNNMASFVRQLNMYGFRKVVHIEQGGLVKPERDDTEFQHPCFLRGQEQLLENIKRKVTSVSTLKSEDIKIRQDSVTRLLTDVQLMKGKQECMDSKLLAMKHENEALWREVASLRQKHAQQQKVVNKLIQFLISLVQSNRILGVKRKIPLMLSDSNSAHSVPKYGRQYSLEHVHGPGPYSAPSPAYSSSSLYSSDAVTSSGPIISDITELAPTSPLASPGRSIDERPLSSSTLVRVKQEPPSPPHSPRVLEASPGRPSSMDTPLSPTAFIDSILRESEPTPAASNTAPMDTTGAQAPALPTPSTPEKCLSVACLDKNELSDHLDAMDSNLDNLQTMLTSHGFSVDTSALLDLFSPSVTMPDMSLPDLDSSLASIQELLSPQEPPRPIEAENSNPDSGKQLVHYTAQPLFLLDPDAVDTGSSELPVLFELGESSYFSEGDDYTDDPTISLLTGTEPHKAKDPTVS
# [19] = target: T6, Sentrin-specific protease 1 (Homo sapiens, UniProt Q9P0U3); assay: Dose response confirmation of small molecule inhibitors of the catalytic domain of the SUMO protease, SENP1 in a FRET assay.; format: functional; conditions: read-out: IC50_Mean
# T6 sequence (Q9P0U3 whole entry, the tested form may be a part): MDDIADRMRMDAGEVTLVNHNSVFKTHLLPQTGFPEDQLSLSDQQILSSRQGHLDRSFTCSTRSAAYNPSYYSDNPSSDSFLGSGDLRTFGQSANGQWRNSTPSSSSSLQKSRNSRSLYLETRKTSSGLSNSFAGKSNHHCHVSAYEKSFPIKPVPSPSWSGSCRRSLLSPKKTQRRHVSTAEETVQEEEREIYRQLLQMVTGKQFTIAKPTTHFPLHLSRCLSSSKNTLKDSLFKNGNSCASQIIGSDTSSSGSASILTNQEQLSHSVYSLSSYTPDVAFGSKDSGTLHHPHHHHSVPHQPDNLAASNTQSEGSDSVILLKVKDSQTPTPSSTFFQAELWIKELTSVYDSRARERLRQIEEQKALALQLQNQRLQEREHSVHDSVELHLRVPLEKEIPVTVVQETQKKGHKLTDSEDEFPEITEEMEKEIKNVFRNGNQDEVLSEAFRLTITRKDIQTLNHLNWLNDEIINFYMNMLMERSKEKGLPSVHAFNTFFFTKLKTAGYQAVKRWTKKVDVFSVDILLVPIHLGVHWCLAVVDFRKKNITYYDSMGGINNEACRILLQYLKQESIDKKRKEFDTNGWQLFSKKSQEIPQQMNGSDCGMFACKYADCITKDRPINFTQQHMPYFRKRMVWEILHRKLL
# [20] = target: T6, Sentrin-specific protease 1; assay: SENP1 catalytic domain blockers, concentration series – biochemical, kinetic FRET, dose response (AID 651697); format: functional; conditions: read-out: IC50_Mean
# [21] = target: T7, Tyrosine-protein phosphatase non-receptor type 22 (Homo sapiens, UniProt Q9Y2R2); assay: PTPN22 enzyme inhibitors – biochemical, fluorescence, LYP catalytic domain, selectivity assay for LMPTP inhibitor project, dose response (AID 652006); format: functional; conditions: read-out: IC50_Mean
# T7 sequence (Q9Y2R2 whole entry): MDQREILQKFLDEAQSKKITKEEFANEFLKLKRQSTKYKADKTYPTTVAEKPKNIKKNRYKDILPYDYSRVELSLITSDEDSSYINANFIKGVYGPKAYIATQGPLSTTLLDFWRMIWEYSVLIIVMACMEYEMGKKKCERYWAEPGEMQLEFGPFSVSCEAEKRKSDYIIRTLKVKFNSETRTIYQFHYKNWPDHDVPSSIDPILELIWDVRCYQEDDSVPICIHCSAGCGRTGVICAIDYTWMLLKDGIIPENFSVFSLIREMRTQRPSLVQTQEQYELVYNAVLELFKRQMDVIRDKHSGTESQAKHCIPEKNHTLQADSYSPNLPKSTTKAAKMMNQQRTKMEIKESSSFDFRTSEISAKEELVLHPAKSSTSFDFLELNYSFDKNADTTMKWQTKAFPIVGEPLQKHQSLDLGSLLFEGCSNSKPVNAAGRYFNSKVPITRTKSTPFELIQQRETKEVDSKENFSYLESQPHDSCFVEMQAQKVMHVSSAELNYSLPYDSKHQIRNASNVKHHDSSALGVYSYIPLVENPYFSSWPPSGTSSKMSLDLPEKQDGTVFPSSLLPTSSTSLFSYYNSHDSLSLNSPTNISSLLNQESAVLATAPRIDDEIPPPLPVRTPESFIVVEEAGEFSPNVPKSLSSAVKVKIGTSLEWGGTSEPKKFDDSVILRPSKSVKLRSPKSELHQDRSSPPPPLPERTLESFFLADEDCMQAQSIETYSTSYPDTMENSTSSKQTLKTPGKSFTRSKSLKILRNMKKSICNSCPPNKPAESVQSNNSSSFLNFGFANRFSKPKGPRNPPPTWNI
# [22] = target: Low molecular weight phosphotyrosine protein phosphatase (Homo sapiens, UniProt P24666); format: functional; conditions: read-out: IC50_Mean;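 also: Dose-response confirmation assay measuring inhibition of LMPTP enzyme activity by fluorescence intensity read-out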
# [23] = target: Benomyl/methotrexate resistance protein (Candida albicans, UniProt P28873); assay: Candida albicans Mdr1 pump inhibition curves – singleplex, Cherry Pick1 hits, dose response (AID 588608); format: functional
# [24] = target: Aryl hydrocarbon receptor (Homo sapiens, UniProt P35869); conditions: Potency;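 also: confirmatory quantitative high-throughput screen measuring activation of the AhR signaling pathway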
# Cytochrome P450 3A4 = Cytochrome P450 3A4 (Homo sapiens, UniProt P08684); conditions: Potency;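 also: confirmatory qHTS run detecting inhibitors and substrates of CYP3A4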
# Chain of Cytochrome P450 3A4 (P08684 whole entry): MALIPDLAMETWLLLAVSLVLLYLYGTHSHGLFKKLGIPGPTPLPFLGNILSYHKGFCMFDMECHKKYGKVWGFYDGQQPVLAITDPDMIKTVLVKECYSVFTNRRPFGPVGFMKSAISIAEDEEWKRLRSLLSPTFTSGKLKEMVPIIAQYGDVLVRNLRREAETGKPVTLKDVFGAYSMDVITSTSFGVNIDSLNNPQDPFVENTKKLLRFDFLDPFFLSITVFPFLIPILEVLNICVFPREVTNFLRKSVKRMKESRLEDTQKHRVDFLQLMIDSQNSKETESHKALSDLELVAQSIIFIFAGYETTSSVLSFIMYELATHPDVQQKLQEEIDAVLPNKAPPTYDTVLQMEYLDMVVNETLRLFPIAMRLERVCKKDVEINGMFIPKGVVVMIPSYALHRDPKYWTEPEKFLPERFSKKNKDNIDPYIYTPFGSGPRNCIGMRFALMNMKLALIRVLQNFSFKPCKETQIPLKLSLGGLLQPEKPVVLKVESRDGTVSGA
compound,measurement,setting,value
COc1ccc(C(=O)NC(C)CCn2cccn2)cc1OC1CCN(C(C)C)CC1 (stereo not drawn),IC50,[1],6.86 µM (active)
same,IC50,[2],4.22 µM (active)
S=C(c1cn(CCOc2cccc3ccccc23)c2ccccc12)N1CCCC1,IC50,[3],32.9 µM (active)
same,IC50,Prothrombin,41.8 µM (active)
same,IC50,[4],> 100 µM (inactive)
same,AC50,INS1,4.3 µM (active)
CCc1ccc(NC(=O)Cc2cn(C)c3ccccc23)cc1,IC50,[5],> 80 µM (inactive)
same,IC50,[6],57 µM (inactive)
same,IC50,[7],> 80 µM (inactive)
COc1ccc(-c2cc(N3CCN(C(=O)c4ccoc4)CC3)n3nc(-c4cccc(Cl)c4)cc3n2)cc1,EC50,[8],1.3 µM (active)
same,EC50,[9],4.86 µM (active)
O=C(CCCOc1ccc(Cl)cc1Cl)N/N=C/c1ccccc1,IC50,[10],110 µM (inactive)
same,IC50,[11],16 µM (inactive)
same,IC50,[12],83.3 µM (inactive)
CN1CCC2(CC1)N=C(c1ccc(F)cc1)C(=S)N2C(=O)c1ccccc1,IC50,[13],28.6 µM (active)
same,IC50,[14],> 100 µM (inactive)
CCSC1=N/C(=C\c2ccc3c(c2)OCO3)C(=O)S1,IC50,[3],25 µM (active)
same,IC50,Prothrombin,64.3 µM (active)
same,IC50,[4],> 100 µM (inactive)
O=C(COc1ccc(F)cc1Cl)Nc1ccccc1C(=O)N1CCCCC1,IC50,[15],640 nM (active)
CCOc1ccc(NC(=O)CSc2nc(O)c3c[nH]nc3n2)cc1,IC50,Steroidogenic factor 1,2.89 µM (active)
same,IC50,[16],35.9 µM (inactive)
same,IC50,[17],8.61 µM (active)
CSc1c(C#N)c(N)nc2sc(C(=O)c3ccccc3)c(N)c12,EC50,[18],95.5 µM (active)
same,IC50,[19],13.8 µM (active)
same,IC50,[20],13.2 µM (active)
NS(=O)(=O)c1ccc(CCNC(=O)c2ccc3nccnc3c2)cc1,IC50,[21],54.2 µM (inactive)
same,IC50,[22],17.1 µM (active)
NC(=O)c1nc(-c2ccco2)nc2c1[nH]c(=O)n2-c1ccc(Cl)c(Cl)c1,EC50,[23],14 µM (active)
CC(C)(C)C(=O)C(Oc1ccc(Cl)cc1)n1cncn1 (stereo not drawn) [TRIADIMEFON],AC50,[24],70.8 µM (inconclusive)
same,AC50,Cytochrome P450 3A4,794 nM (inconclusive)
OC(CNC1Cc2ccccc2C1)c1ccccc1 (stereo not drawn),IC50,[1],0.479 µM (active)
same,IC50,[2],0.178 µM (active)
